Test results: patent US8394971B2, “Indole derivatives as selective androgen receptor modulators (SARMS)” (Janssen Pharmaceutica N.V., priority 2004, dated 2013)

Legend:
[1] = tested on: testosterone-enhanced ventral prostate and seminal vesicle weights in castrated male Sprague Dawley rats; test: Ventral Prostate and Seminal Vesicle Weight In Vivo Assay; set-up: species or system rat; conditions: immature castrated rats; once daily for five days, usually orally at 40 mg/kg, with testosterone propionate 2 mg/kg s.c.
Procedure, shortened: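 Immature (~50 g) castrated Sprague Dawley rats dosed once daily for five days with compound (usually oral, 40 mg/kg, cyclodextrin or methylcellulose vehicle) plus testosterone propionate 2 mg/kg s.c. Wet ventral prostate and seminal vesicle weights taken on day six; activity judged by prostate weight or body-weight-adjusted % inhibition.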

[2] = biological target: T1, androgen receptor (adenovirus AdEasy+rAR in COS-7 cells) (Rattus norvegicus, UniProt P15207); test: COS-7 Whole-Cell Androgen Receptor Binding Assay, Adenovirus Transduction; conditions: COS binding; for inhibition at 3 µM / % Inhibition: 3000 nM unless otherwise noted
T1 construct: expressed in transfected cells
T1 sequence (P15207 1-902): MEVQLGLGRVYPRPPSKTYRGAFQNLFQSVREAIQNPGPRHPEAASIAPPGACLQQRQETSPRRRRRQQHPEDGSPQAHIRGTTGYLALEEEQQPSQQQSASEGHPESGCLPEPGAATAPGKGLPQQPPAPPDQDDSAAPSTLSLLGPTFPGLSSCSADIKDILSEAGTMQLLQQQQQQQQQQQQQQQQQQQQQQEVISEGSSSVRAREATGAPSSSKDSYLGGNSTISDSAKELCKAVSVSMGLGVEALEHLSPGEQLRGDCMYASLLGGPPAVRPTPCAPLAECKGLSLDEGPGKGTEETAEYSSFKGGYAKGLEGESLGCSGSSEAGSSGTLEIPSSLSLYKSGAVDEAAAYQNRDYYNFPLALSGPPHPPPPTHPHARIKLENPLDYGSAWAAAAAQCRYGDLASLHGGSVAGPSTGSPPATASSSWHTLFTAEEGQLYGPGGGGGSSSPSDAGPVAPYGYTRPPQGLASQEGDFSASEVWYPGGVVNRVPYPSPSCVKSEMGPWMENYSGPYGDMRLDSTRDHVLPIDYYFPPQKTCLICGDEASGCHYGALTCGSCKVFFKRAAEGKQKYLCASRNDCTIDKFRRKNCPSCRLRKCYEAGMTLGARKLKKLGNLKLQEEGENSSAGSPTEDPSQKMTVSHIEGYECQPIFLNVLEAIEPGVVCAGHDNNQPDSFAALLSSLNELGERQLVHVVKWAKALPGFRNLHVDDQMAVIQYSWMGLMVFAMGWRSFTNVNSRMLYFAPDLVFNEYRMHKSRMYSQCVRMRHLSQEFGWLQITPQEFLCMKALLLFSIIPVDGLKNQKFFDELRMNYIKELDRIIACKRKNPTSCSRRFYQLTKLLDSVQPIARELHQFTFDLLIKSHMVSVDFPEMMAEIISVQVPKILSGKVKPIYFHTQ
Description: COS-7 cells were plated in 96-well plates at 20,000 cells per well, in a solution of DMEM/F12 (GIBCO) containing 10% (v/v) charcoal-treated fetal bovine serum (Hyclone) and lacking phenol red. The cells were then incubated overnight at 37° C. in 5% (v/v) humidified CO2.
Test compound solutions were prepared by diluting the test compound in 100% (v/v) DMSO, if necessary.
Next, 1 mL of DMEM/F12 lacking phenol red was pipetted into each of the wells of a 2-mL 96-well assay block. […] The wells were carefully mixed by pipette.
In a 15 mL or 50 mL sterile centrifuge tube, a dilution in DMEM/F12 of the adenovirus AdEasy+rAR at a moi of 1:50 per well was prepared.
The medium was removed from the 96-well plates by inversion and the plates dried very briefly, inverted, on a sterile towel. As soon as possible after medium removal, 40 μL of the diluted test compound was added to each well, in duplicate. […] The plates were then incubated for 48 hours at 37° C. in 5% (v/v) humidified CO2.
The medium was removed from the above incubated plates by inversion and dried. Each well was then washed with 0.35 mL of 1×PBS. The PBS was then removed from the plates by inversion and the plates dried.
To each well was then added 50 μL of 0.5% (v/v) Triton X-100 (Sigma) in 1×PBS and the plates placed on a rotary shaker for 5 min. The contents of each well were then transferred to an OptiPlate-96 (Packard) scintillation plate. To each well was then added 0.2 mL of Microscint-20 (Packard) and the wells counted on a TopCount (Packard).
[…] Counts per well were measured and percents of inhibition determined. […] Counts per well were measured and IC50s determined by linear regression.

[3] = biological target: T2, androgen receptor (adenovirus AdEasy+rAR in L929 cells) (Rattus norvegicus, UniProt P15207); test: L929 Androgen Receptor Functional Assay, Adenovirus Transduction; type: cell-based; conditions: for % Activity: L929 agonist testing
T2 construct: expressed in transfected cells
T2 sequence (P15207 1-902): T1 sequence (P15207 1-902)
Description: L929 cells were plated in 96-well plates at 20,000 cells per well, in DMEM/F12 (GIBCO) containing 10% (v/v) charcoal-treated fetal bovine serum (Hyclone) and lacking phenol red. The plates were then incubated overnight at 37° C. in 5% (v/v) humidified CO2.
Test compound dilutions were prepared in 100% (v/v) DMSO, if necessary. Each dilution was made to 1250× the final desired assay concentration.
First, 2 mL of DMEM/F12 lacking phenol red was pipetted into the wells of a 2-mL 96-well assay block. Next, 4 μL of the 1250× test compound dilutions were pipetted into each well of the assay block. The mixtures within the well were then carefully mixed by pipette.
In a 15 mL or 50 mL sterile centrifuge tube, a 2.5 nM (2.5×) dilution of R1881 (methyl-trienolone) in DMEM/F12 lacking phenol red was prepared.
In a second 15 mL or 50 mL centrifuge tube a solution containing an equal volume of DMEM to the first and an equal volume of 100% (v/v) DMSO to the volume of R1881 used in the first tube was prepared.
In a 15 mL or 50 mL sterile centrifuge tube, a dilution in DMEM/F12 of the adenovirus AdEasy+rAR at an moi of 1:500 per well was prepared.
The medium was removed from the 96-well plates by inversion and dried, inverted, very briefly. As soon as possible after medium removal, 40 μL of the diluted unlabeled test compound was added to each well, in duplicate. To each well designated for antagonist testing was added 40 μL of the 2.5 nM R1881 dilution to the wells for antagonist testing. To each well designated for agonist testing was added 40 μL of the DMSO dilution. Then 20 μL of the diluted adenovirus were added to all wells. The plates were incubated for 48 hours at 37° C. in 5% (v/v) humidified CO2.
To each well was added 100 μL of Steady-Glo luciferase assay substrate (Promega) and the plates were placed on a rotary shaker for 1 min. The plates were then incubated at room temperature in the dark for one hour. The contents of each well were then transferred to a white microtiter plate (Packard) and read on a Luminoskan Ascent (Thermo Lab Systems).
L929 AR percent activity was determined by testing dilutions of the test compound using a concentration of 3000 nM unless otherwise noted. L929 percent inhibition was determined by testing dilutions of the test compound using a concentration of 3000 nM. […] Luciferase activity per well were measured and EC50s and IC50s determined by linear regression.

CC[S+]([O-])CC(C)(O)c1[nH]c2cc(C(F)(F)F)c(C#N)cc2c1C (centres unmarked) [compound 252]
active / inactive (inhibition of testosterone-enhanced prostate weight) [1]: active | inhibition at 3 µM [2]: 68% | IC50 ([2]; read-out: IC50): > 3 µM | inhibition at 3 µM ([3]; L929, L929 antagonist testing with R1881, 3000 nM): 65% | % Activity ([3]; 3000 nM): 1%

CCSCC(C)(O)c1cc2cc(F)c(Cl)cc2[nH]1 (racemic) [compound 206]
active / inactive (inhibition of testosterone-enhanced prostate weight) [1]: active | % Inhibition [2]: −40% | % Activity ([3]; 3000 nM): 5%

CC[S+]([O-])C[C@](C)(O)c1cc2cc([N+](=O)[O-])c(C(F)(F)F)cc2[nH]1 (stereo in doubt) [Compound #155, 1-Ethanesulfinyl-2-(5-nitro-6-trifluoromethyl-1H-indol-2-yl)-propan-2-ol]
active / inactive (inhibition of testosterone-enhanced prostate weight) [1]: inactive | inhibition at 3 µM [2]: 35% | % Activity ([3]; 3000 nM): 2%

CC(O)(CSCC(F)(F)F)c1cc2cc(F)c(C(F)(F)F)cc2[nH]1 (centres unmarked) [compound 189]
active / inactive (inhibition of testosterone-enhanced prostate weight) [1]: inactive | inhibition at 3 µM [2]: 100% | % Activity ([3]; 3000 nM): 3%

CCCSCC(C)(O)c1cc2cc([N+](=O)[O-])c(C(F)(F)F)cc2[nH]1 (centres unmarked) [compound 168]
active / inactive (inhibition of testosterone-enhanced prostate weight) [1]: inactive | inhibition at 3 µM [2]: 60% | % Activity ([3]; 3000 nM): 3%

CCS(=O)(=O)CC(C)(O)c1cc2cc(C#N)c(C(F)(F)F)cc2[nH]1 (single isomer, unassigned) [Compound #222, 2-(2-Ethanesulfonyl-1-hydroxy-1-methyl-ethyl)-6-trifluoromethyl-1H-indole-5-carbonitrile]
active / inactive (inhibition of testosterone-enhanced prostate weight) [1]: active | inhibition at 3 µM [2]: 42% | % Activity ([3]; @ 8000 nM): 0 @ 8000 nM %

CCSCC(O)(CC)c1cc2cc([N+](=O)[O-])c(C(F)(F)F)cc2[nH]1 (centres unmarked) [compound 169]
active / inactive (inhibition of testosterone-enhanced prostate weight) [1]: active | inhibition at 3 µM [2]: 90% | % Activity ([3]; 3000 nM): 2%

CC(O)(CSCc1cccs1)c1cc2cc([N+](=O)[O-])c(C(F)(F)F)cc2[nH]1 (centres unmarked) [compound 197]
active / inactive (inhibition of testosterone-enhanced prostate weight) [1]: inactive | inhibition at 3 µM [2]: 86% | % Activity ([3]; 3000 nM): 2%

CC(O)(CS(C)(=O)=O)c1cc2cc(Cl)c(C(F)(F)F)cc2[nH]1 (centres unmarked) [compound 138]
active / inactive (inhibition of testosterone-enhanced prostate weight) [1]: inactive | inhibition at 3 µM [2]: 78% | % Activity ([3]; 3000 nM): 0%

CC(C)SCC(C)(O)c1cc2cc([N+](=O)[O-])c(C(F)(F)F)cc2[nH]1 (centres unmarked) [compound 164]
active / inactive (inhibition of testosterone-enhanced prostate weight) [1]: inactive | inhibition at 3 µM [2]: 68% | % Activity ([3]; 3000 nM): 2%

CCCCSCC(C)(O)c1cc2cc([N+](=O)[O-])c(C(F)(F)F)cc2[nH]1 (centres unmarked) [compound 200]
active / inactive (inhibition of testosterone-enhanced prostate weight) [1]: inactive | inhibition at 3 µM [2]: 97% | % Activity ([3]; 3000 nM): 1%

CCC(O)(CSCC(F)(F)F)c1cc2cc(F)c(C(F)(F)F)cc2[nH]1 (centres unmarked) [compound 194]
active / inactive (inhibition of testosterone-enhanced prostate weight) [1]: inactive | inhibition at 3 µM [2]: 80% | % Activity ([3]; 3000 nM): 2%

CCC(O)(CS(=O)(=O)CC(F)(F)F)c1cc2cc([N+](=O)[O-])c(C(F)(F)F)cc2[nH]1 (centres unmarked) [compound 191]
active / inactive (inhibition of testosterone-enhanced prostate weight) [1]: active | inhibition at 3 µM [2]: 65% | % Activity ([3]; 3000 nM): 2%

CCSCC(C)(O)c1cc2cc([N+](=O)[O-])cc(C(F)(F)F)c2[nH]1 (centres unmarked) [compound 212]
active / inactive (inhibition of testosterone-enhanced prostate weight) [1]: active | inhibition at 3 µM [2]: 86% | % Activity ([3]; 3000 nM): −3%

CCSCC(C)(O)c1cc2cc([N+](=O)[O-])c(C(F)(F)F)cc2n1C (racemic) [compound 165]
active / inactive (inhibition of testosterone-enhanced prostate weight) [1]: active | % Inhibition [2]: 69% | % Activity ([3]; 3000 nM, 3 µM): 1%

COc1ccc(SCC(C)(O)c2cc3cc(Cl)c(C(F)(F)F)cc3[nH]2)cc1 (centres unmarked) [compound 131]
active / inactive (inhibition of testosterone-enhanced prostate weight) [1]: inactive | inhibition at 3 µM [2]: 84% | % Activity ([3]; 3000 nM): −5%

CCC(O)(CS(=O)(=O)CC)c1cc2cc([N+](=O)[O-])c(C(F)(F)F)cc2[nH]1 (centres unmarked) [compound 176]
active / inactive (inhibition of testosterone-enhanced prostate weight) [1]: active | inhibition at 3 µM [2]: 75% | % Activity ([3]; 3000 nM): 3%

CC(O)(CSCC(F)(F)F)c1cc2cc([N+](=O)[O-])c(C(F)(F)F)cc2[nH]1 (centres unmarked) [compound 201]
active / inactive (inhibition of testosterone-enhanced prostate weight) [1]: inactive | % Inhibition [2]: 86% | % Activity ([3]; 3000 nM, 3 µM): 2%

CCC(O)(CSCC(F)(F)F)c1cc2cc([N+](=O)[O-])c(C(F)(F)F)cc2[nH]1 (centres unmarked) [compound 185]
active / inactive (inhibition of testosterone-enhanced prostate weight) [1]: active | inhibition at 3 µM [2]: 92% | % Activity ([3]; 3000 nM): 2%
